Results published in ChEMBL document CHEMBL2073988, “Secretory transport of methylprednisolone possibly mediated by P-glycoprotein in Caco-2 cells” (Biol Pharm Bull, 2002).

Target: ATP-dependent translocase ABCB1 (Homo sapiens, UniProt P08183)
Experiment: TP_TRANSPORTER: transepithelial transport (basal to apical), inhibited by Verapamil in Caco-2 cells
Type: functional, cell-based

ATP-dependent translocase ABCB1, sequence (P08183 whole entry): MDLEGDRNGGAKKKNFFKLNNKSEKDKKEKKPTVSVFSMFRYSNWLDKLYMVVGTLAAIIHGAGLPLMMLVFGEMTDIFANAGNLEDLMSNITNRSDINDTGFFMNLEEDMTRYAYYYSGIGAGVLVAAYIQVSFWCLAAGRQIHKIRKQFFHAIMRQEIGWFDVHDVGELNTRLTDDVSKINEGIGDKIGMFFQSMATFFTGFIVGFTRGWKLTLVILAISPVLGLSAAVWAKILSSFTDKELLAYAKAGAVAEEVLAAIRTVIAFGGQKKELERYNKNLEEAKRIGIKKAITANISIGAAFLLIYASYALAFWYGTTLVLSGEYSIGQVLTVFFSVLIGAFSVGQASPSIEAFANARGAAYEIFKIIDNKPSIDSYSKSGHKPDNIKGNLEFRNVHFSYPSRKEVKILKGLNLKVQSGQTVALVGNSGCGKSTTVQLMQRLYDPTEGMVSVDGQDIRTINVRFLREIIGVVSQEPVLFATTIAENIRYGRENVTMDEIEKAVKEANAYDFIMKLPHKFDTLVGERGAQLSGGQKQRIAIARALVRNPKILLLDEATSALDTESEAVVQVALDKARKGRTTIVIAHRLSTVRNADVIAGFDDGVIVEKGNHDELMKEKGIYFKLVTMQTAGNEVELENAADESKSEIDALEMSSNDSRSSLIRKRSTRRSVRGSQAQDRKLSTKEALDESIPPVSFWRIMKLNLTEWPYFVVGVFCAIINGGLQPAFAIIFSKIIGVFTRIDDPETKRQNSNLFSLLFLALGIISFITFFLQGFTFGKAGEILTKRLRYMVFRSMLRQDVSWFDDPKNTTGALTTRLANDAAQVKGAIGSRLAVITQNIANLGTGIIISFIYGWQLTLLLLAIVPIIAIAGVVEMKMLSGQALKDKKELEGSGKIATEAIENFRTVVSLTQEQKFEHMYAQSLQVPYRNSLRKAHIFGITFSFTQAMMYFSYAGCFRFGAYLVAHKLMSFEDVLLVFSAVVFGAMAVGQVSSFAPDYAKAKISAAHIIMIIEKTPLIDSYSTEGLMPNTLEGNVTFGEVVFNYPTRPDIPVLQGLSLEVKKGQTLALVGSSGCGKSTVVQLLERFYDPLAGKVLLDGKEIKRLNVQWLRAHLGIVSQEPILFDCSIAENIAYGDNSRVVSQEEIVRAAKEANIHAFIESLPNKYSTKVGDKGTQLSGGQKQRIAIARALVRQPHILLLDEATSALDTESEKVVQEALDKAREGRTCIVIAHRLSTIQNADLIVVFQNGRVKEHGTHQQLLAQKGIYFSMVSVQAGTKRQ

For `C[C@H]1C[C@@H]2[C@H]([C@@H](O)C[C@@]3(C)[C@H]2CC[C@]3(O)C(=O)CO)[C@@]2(C)C=CC(=O)C=C12` [METHYLPREDNISOLONE], the Activity was “substrate [+]”.
